Assay results from patent US7378375B1, “Substituted pyridine herbicides” (Syngenta Crop Protection, Inc., priority 2000, dated 2008).

How the values were obtained:
[1] = test system: Monocotyledonous and dicotyledonous test plants; assay: Herbicidal action before emergence of the plants (pre-emergence action), greenhouse pot test, 9-level rating after 4 weeks; type: in vivo; conditions: 250 g/ha, rated after 4 weeks, 9-level scale
Outline: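 Compounds applied pre-emergence as a spray (500 l water/ha) of aqueous suspension or emulsion onto soil immediately after sowing mono- and dicot species in pots. Greenhouse-grown; damage rated after 4 weeks on a 9-level scale (1=complete damage, 9=no effect).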

[2] = test system: Monocotyledonous and dicotyledonous test plants; assay: Post-emergence herbicidal action, greenhouse pot test, sprayed at the 2- to 3-leaf stage, 9-level rating after 2 to 3 weeks; type: in vivo; conditions: 250 g/ha, rated after 2 to 3 weeks, 9-level scale
Outline: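 Plants grown in standard soil in pots; test substances sprayed at the 2- to 3-leaf stage at optimum dosage (500 l water/ha) as aqueous suspension or emulsion from formulated concentrates. Plants then kept in the greenhouse under optimum conditions; rated after 2 to 3 weeks on a 9-level scale (1=complete damage, 9=no effect).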

SMILES	Pre-emergence action rating, Abutilon [1]	Pre-emergence action rating, Amaranthus [1]	Pre-emergence action rating, Chenop. [1]	Pre-emergence action rating, Digitaria [1]	Pre-emergence action rating, Echino. [1]	Pre-emergence action rating, Panicum [1]	Post-emergence action rating, Abutilon [2]	Post-emergence action rating, Amaranth [2]	Post-emergence action rating, Chenop. [2]	Post-emergence action rating, Digitaria [2]	Post-emergence action rating, Echino. [2]	Post-emergence action rating, Ipopur. [2]	Post-emergence action rating, Panicum [2]	Post-emergence action rating, Xanth. [2]
COCCOCc1nc(C(F)F)ccc1C(=O)C1=C(O)C2CCC(C2)C1=O (centres unmarked) [A646-B52]	1	2	1	1	1	1	2	2	1	2	2	2	1	2
COCCOCc1c(C(=O)C2=C(O)C3CCC(C3)C2=O)ccc(C(F)(F)F)[n+]1[O-] (centres unmarked) [A736-B52]	1	1	1	4	2	1	1	1	1	1	2	2	1	2
CS(=O)(=O)CCOCc1nc(C(F)(F)F)ccc1C(=O)C1=C(O)C2CCC(C2)C1=O (centres unmarked) [A819-B52]	1	2	1	9	7	7	2	2	1	3	2	2	2	2
COc1cc(OC)nc(SCc2nc(C(F)(F)F)ccc2C(=O)C2=C(O)C3CCC(C3)C2=O)n1 (centres unmarked) [A830-B52]	5	4	4	9	3	4	5	4	4	9	3	5	4	4
CC(=O)OCc1nc(C(F)(F)F)ccc1C(=O)C1=C([O-])C2CCC(C2)C1=O.[K+] (centres unmarked) [A833-B52 (K+)]	1	2	1	2	2	1	3	3	3	3	4	3	3	2
CC(=O)OCc1nc(C(F)(F)F)ccc1C(=O)C1=C(O)C2CCC(C2)C1=O (centres unmarked) [A833-B52, (H4), 3-(2-Hydroxy-4-oxobicyclo[3.2.1]oct-2-en-3-carbonyl)-6-trifluoromethylpyridin-2-yl methyl acetate]	1	1	1	1	1	1	3	2	3	3	4	2	3	1
O=C(C1=C(O)C2CCC(C2)C1=O)c1ccc(C(F)(F)F)nc1COCC(F)(F)F (centres unmarked) [A834-B52]	1	2	1	1	1	1	2	1	1	1	2	2	1	2
COCCOCCOCc1nc(C(F)(F)F)ccc1C(=O)C1=C(O)C2CCC(C2)C1=O (centres unmarked) [A835-B52]	2	1	2	2	1	1	2	2	1	1	2	2	1	3
C#CCCOCc1nc(C(F)(F)F)ccc1C(=O)C1=C(O)C2CCC(C2)C1=O (centres unmarked) [A836-B52]	5	2	3	2	1	1	2	2	1	2	2	3	2	3
CCN(CC)CC.O=C(C1=C(O)C2CCC(C2)C1=O)c1ccc(C(F)(F)F)nc1COC1CCCO1 (centres unmarked) [A837-B52 (Et3NH+)]	1	1	1	1	2	1	2	2	1	2	2	2	2	2
CCC(OC)OCCOCc1nc(C(F)(F)F)ccc1C(=O)C1=C(O)C2CCC(C2)C1=O (centres unmarked) [A838-B52]	1	1	1	3	2	1	1	2	1	2	3	2	2	2
CC(C)(C)C(=O)OCc1nc(C(F)(F)F)ccc1C(=O)C1=C(O)C2CCC(C2)C1=O (centres unmarked) [A839-B52]	1	1	1	3	2	1	2	2	1	2	2	2	2	2
C=CCOCCOCc1nc(C(F)(F)F)ccc1C(=O)C1=C(O)C2CCC(C2)C1=O (centres unmarked) [A840-B52]	2	2	1	2	2	1	3	2	1	3	4	3	2	3
